# Entries after “also recorded” stand apart in the source; their conditions may differ.
# How the values were obtained:
# [1] = system: glucocorticoid-treated mice; experiment: 56 day mouse model of glucocorticoid-induced osteonecrosis: femur blood vessel / vascular density by microCT; assay type: in vivo
# Method: FIG. 2. Blood vessel density of femurs from glucocorticoid-treated mice. 4 month old male mice were treated glucocorticoid (“GC”) or placebo for 56 days. At day 28 a group of glucocorticoid-treated mice were treated with LLP2A-Ale or PTH for an additional 28 days.
# FIG. 3. Vascular density of femurs from glucocorticoid-treated mice. 4 month old male mice were treated with glucocorticoid or placebo for 56 days. At day 28 a group of glucocorticoid-treated mice were treated with LLP2A-Ale or PTH for an additional 28 days. At day 56 animals were given a contrast agent and then sacrificed and then the animals femurs were decalcified and then scanned by microCT.
# The efficacy of LLP2A-Ale was evaluated using a mouse model of glucocorticoid-induced osteonecrosis. 4-month-old male mice were treated for 56 days with glucocorticoids. At day 28, a group of mice was treated with either LLP2A-Ale or PTH for an additional 28 days. Blood vessel density of the femur was measured after sacrifice by microCT according to published methods. […] Vascular density of the femurs of glucocorticoid-treated mice subsequently treated with LLP2A-Ale or PTH was also assessed by giving the mice a contrast agent, then sacrificing the mice, decalcifying the femurs, and scanning the femurs by microCT. […] Without being bound to a particular theory, it is believed that LLP2A-Ale promotes increased vascularity by bringing MSCs to the bone that is turning over with osteonecrosis, which stimulates new blood vessel formation, which in turn is needed to stimulate new bone formation in the osteonecrotic bone.
# [2] = system: dexamethasone-treated mice; experiment: Histological evaluation (H&E) of femoral epiphyses, 90 day model; assay type: in vivo, BALB/c mice
# Method: FIG. 9A-9F. Histological evaluation of femurs from placebo- or dexamethasone-treated mice. Mice were treated with placebo (PL) or dexamethasone alone (Dex) as described above for FIG. 7. All mice were euthanized at day 90. Right and left distal femurs were fixed in 10% neutral buffer formalin and decalcified. The specimens were dehydrated, embedded in paraffin, cut into 5 micron sections and H&E stained. The sections were scored by two experienced histologists and then a consensus reading was performed by two additional histologists. FIG. 9A-9B: 4× (A) and 20× (B) magnifications of representative proximal femoral epiphyses in mice treated with placebo. (C) 4× magnification of a representative proximal femoral epiphyses in mice treated with dexamethasone (Dex) alone. FIGS. 9D, 9E, and 9F: 20× magnifications of representative proximal femoral epiphyses in mice treated with dexamethasone (Dex) alone.
# FIG. 11A-11F. Histological evaluation of femurs from LLP2A-Ale-treated mice. Mice were treated with Dex+250 μg/kg LLP2A-Ale as described above for FIG. 7. All mice were euthanized at day 90. Right and left distal femurs were fixed in 10% neutral buffer formalin and decalcified. The specimens were dehydrated, embedded in paraffin, cut into 5 micron sections and H&E stained. The sections were scored by two experienced histologists and then a consensus reading was performed by two additional histologists. (A, D): 4× magnifications of representative proximal femoral epiphyses in mice treated with Dex+LLP2A-Ale. (B, C, E, F): 20× magnifications of representative proximal femoral epiphyses in mice treated with Dex+LLP2A-Ale.
# Both the right and left distal femurs were fixed in 10% neutral buffered formalin and were shaken for 3 days, then decalcified in 5% EDTA until the bones were fully decalcified. The specimens were then processed in ascending concentrations of ethanol and embedded in paraffin. Tissue sections were cut into 5 microns sections, stained with hematoxylin and eosin and evaluated for the presence of osteonecrosis by bright field microscopy at 20× magnification. Experimental methods are also described in Mohan et al., Calif Tissue Int (2016) doi:10.1007/s00223-016-0195-6, which is incorporated herein by reference in its entirety for all purposes. Osteonecrosis was detected using modified criteria reported by Yang el al., (a mouse model for glucocorticoid-induced osteonecrosis: Effect of a steroid holiday. J Orthop Res. 2009; 27:169-75) which defines osteonecrosis as requiring all of the following changes: (1) empty lacunae, (2) pyknotic osteocyte nuclei in areas of empty lacunae and necrosis of adjacent bone marrow, (3) presence of excessive fat cells in the bone marrow, (4) cartilage degradation and (5) presence of fibrin thrombi in the blood vessels. In addition, trabecular bone volume, adipose volume, sinusoid volume and osteoblast surface at the distal femoral epiphyses were measured. Empty lacunae density was calculated by empty lacunae/total osteocytes within the entire distal femoral epiphysis region for each sample. Each section was scored by two experienced histologists, then a consensus reading was performed by two additional experienced histologists.
# [3] = system: osteocytes; experiment: Cortical bone osteocyte apoptosis (TUNEL) in glucocorticoid-treated mice; assay type: in vivo; conditions: GC 56 days, one dose of LLP2A-Ale at day 28, sacrifice day 56, TUNEL (FIG. 5)
# Method: FIG. 5. Cortical bone osteocyte apoptosis. Mice were treated with PL for 56 days, GC alone for 56 days or GC alone for 28 days, then GC plus one dose of LLP2A-Ale at day 28. Animals were sacrificed at day 56 and the percent of osteocytes that were apoptotic were measured.
# Osteocytes die from loss of blood supply and also from glucocorticoid treatment. […] The animals were sacrificed at day 56, the bones were decalcified and then TUNEL assays were performed to determine the number of apoptotic osteocytes. Glucocorticoid treatment alone, at day 56 increased the number of osteocytes that were apoptotic.
# [4] = system: dexamethasone-treated mice; experiment: 30 and 45 day prevention study: trabecular bone histology of distal femur epiphyses; assay type: in vivo, BALB/c mice
# Method: (§1) The efficacy of LLP2A-Ale and hPTH (1-34) was evaluated over a 30 and 45 day study using a mouse model of glucocorticoid-induced osteonecrosis. Seven week-old male BALB/c mice were randomized into Placebo group (fresh water), glucocorticoid only (4 mg/L dexamethasone (Dex) in drinking water), Dex+250 μg/kg LLP2A-Ale, Dex+500 μg/kg LLP2A-Ale, or Dex+40 μg/kg hPTH (administered five times a week) for 30 or 45 days. At day 30 or 45, the mice were sacrificed. Study endpoints included histological evidence of osteonecrosis, bone mass, and prevalent blood vessels (CD31 and Endomucin expression) in the distal femur, and was performed as set forth in Example 2. Non-parametric Kruskal-Wallis tests were used to determine the differences between the groups.
# [5] = system: CD31 and Endomucin expression; experiment: 30 and 45 day prevention study: blood vessels in the distal femur (CD31 and Endomucin expression); assay type: in vivo, BALB/c mice; conditions: 30 and 45 day study, conclusion
# Method: as §1
structure (smiles),measurement,setting,value
Cc1ccccc1NC(=O)Nc1ccc(CC(=O)N[C@@H](CCCCNC(=O)/C=C/c2cccnc2)C(=O)N[C@@H](CCCC(=O)O)C(=O)NC2(C(=O)NCCOCCOCCNC(=O)CCC(=O)NCCOCCOCCNC(=O)CCC(=O)N[C@@H](CCCCNC(=O)[C@H](N)CSC3CC(=O)N(CC4CCC(C(=O)NCCCC(O)(P(=O)(O)O)P(=O)(O)O)CC4)C3=O)C(N)=O)CCCCC2)cc1 (stereo partly shown) [LLP2A-Ale],Blood vessel density of the femur,"[1]; 4 month old male mice, GC 56 days, LLP2A-Ale or PTH from day 28 for 28 days, microCT after sacrifice (FIG. 2)",significantly higher than the negative control; also recorded: significantly different from all other groups
same,Vascular density of femurs,"[1]; contrast agent at day 56, decalcified femurs scanned by microCT (FIG. 3), vs GC alone",increased vascular density compared to glucocorticoid alone; also recorded: increased vascular density compared to GC alone
same,Sinusoid formation (histological sections of epiphyses),"[2]; Dex+250 μg/kg LLP2A-Ale, day 90, H&E (FIG. 11)",increased sinusoid formation; also recorded: increase in sinusoid formation
same,Amount of fibrin within the bone marrow,[2]; day 90,appeared to reduce the amount of fibrin
same,Number of osteoblasts on the bone surface in areas of osteonecrosis,"[2]; epiphyses, day 90",increased the number of osteoblasts
same,Adipocyte density in the bone marrow,"[2]; vs dexamethasone alone, day 90",appeared to reduce
same,Cellularity of the bone marrow,"[2]; vs dexamethasone alone, day 90",maintained the cellularity of the bone marrow
same,Number of empty lacunae/pyknotic nuclei,"[2]; vs dexamethasone alone, day 90",appeared to reduce
same,Sinusoidal red blood cell volume,"[2]; vs dexamethasone alone, day 90",increased the sinusoidal red blood cell volume
same,Cortical bone osteocyte apoptosis (percent of osteocytes apoptotic),[3],prevented osteocyte apoptosis
same,Trabecular bone volume,"[4]; day 30 and 45, Dex vs placebo, treated vs Dex (p<0.05)",higher bone volume
same,Trabecular separation,"[4]; vs Dex group, day 30 and 45 (p<0.05)",lower trabecular separation
same,Vascular integrity of the distal femur,[5],maintained the vascular integrity
